Measured values published in patent publication US20100311756A1, “METHODS FOR DELAYING THE PROGRESSION OF AT LEAST ONE OF CARDIAC HYPERTROPHY, CARDIAC REMODELING OR LEFT VENTRICULAR FUNCTION OR THE ONSET OF HEART FAILURE IN SUBJECTS IN NEED OF TREATMENT THEREOF” (TAKEDA PHARMACEUTICALS NORTH AMERICA, INC., priority 2009, published 2010).
Entries after “also recorded” stand apart in the source; their conditions may differ. Marks after values point to notes of the source that are not given here.

Tests used:
[1] = tested on: enzymes involved in purine and pyrimidine metabolism; conditions: Takano et al., Life Sciences 2005; cited from earlier work
[2] = tested on: mice subjected to TAC or sham surgery; assay: TAC or sham surgery in mice, Protocol 2: febuxostat or allopurinol for three weeks beginning seven days after TAC; assay type: in vivo; conditions: for Anterior wall thickness at end-diastole / Anterior wall thickness at end-systole / LV ejection fraction / LV end-diastolic diameter / LV end-systolic diameter / LV fractional shortening / Lung weight / Lung/body weight / Posterior wall thickness at end-diastole / Posterior wall thickness at end-systole / Ventricle weight / Ventricle/body weight: drinking water (FBS 0.05 mg/ml, allopurinol 0.15 mg/ml) three weeks from day 7; for Survival rate: over the three-week treatment period; for TAC-induced ventricular fibrosis: histological staining
Text: (§1) • Mice. Male C57/BL6 mice at 8-9 weeks of age were purchased from Jackson Laboratories (Bar Harbor, Me.) for use in this study. Mice were housed in an air-conditioned room with a 12-hour:12-hour light-dark cycle, received standard mouse chow, and drank tap water. This study was approved by the Institutional Animal Care and Use Committee of the University of Minnesota. • Experimental Protocol 1. This protocol was designed to determine whether febuxostat (2-[3-cyano-4-(2-methylpropoxy)phenyl]-4-methylthiazole-5-carboxylic acid) treatment, beginning immediately after the onset of acute pressure overload, could protect against transverse aortic constriction (TAC)-induced left ventricular (LV) hypertrophy, dysfunction and mortality. Three treatment groups were included (See Table 1, below): sham-operated mice (n=20), TAC mice treated with vehicle (0.5% methylcellulose) (n=30), and TAC mice treated with febuxostat (suspension in 0.5% methylcellulose) (n=30). To generate LV hypertrophy in a short time period with a significant incidence of cardiac mortality, TAC was created by ligating the transverse aorta against a 27 G needle to create severe LV pressure overload. Since mice tend to take in less water and food during the first 1-3 days after the TAC procedure, febuxostat (5 mg/kg/day in 250 μl vehicle) or vehicle (250 μl) was administered daily by oral gavage for a total of 8 days, with the first dose administered on the day of the surgery after the animal awoke from anesthesia (˜60 min after the TAC procedure). On the eighth day, LV function was assessed by echocardiography approximately 1 hour after the last febuxostat or vehicle dose. Approximately 3 hours after echocardiographic evaluation (4 hours after the last febuxostat or vehicle dose), the mice were weighed and blood samples collected. The animals were euthanized and the heart and lungs excised; the right and left atria were trimmed away, and the ventricles and lungs were weighed. Tissue from the left ventricle was used for histological evaluation and Western blots. • Experimental Protocol 2. This protocol was designed to determine whether administration of febuxostat (FBS) or allopurinol (AL) beginning after the onset of cardiac hypertrophy, LV dysfunction and heart failure could exert a protective effect. For this protocol, mice subjected to TAC (using a 26 gauge (G) needle to generate moderate TAC) or sham surgery were divided into six experimental groups as described in Table 1, below. Beginning seven days after TAC, animals were treated with vehicle (0.01 mg/ml NaCl, equivalent salt content as in the FBS drinking water), FBS (0.05 mg/ml) or AL (0.15 mg/ml) in drinking water for three weeks. Following three weeks of treatment, ventricular function was assessed by echocardiography. Blood samples and cardiac tissue were collected during 2-3 hours after the echocardiographic evaluation as described previously in Protocol 1.
(§2) • Minimally Invasive TAC Procedure. TAC was performed using the minimally invasive suprasternal approach described by Hu et al. (See, Hu et al., Am. J. Physiol. Heart Circ. Physiol., 3:H1261-9 (2003)). Mice were anesthetized with a mixture of 80 mg/kg ketamine and 30 mg/kg xylazine intraperitoneally. A horizontal incision was made at the level of the suprasternal notch to allow direct visualization of the transverse aorta without entering the pleural space. With the aid of a dissecting microscope, aortic constriction was performed by ligating the aorta between the right innominate artery and the left carotid artery over a 27 G) needle using 5-0 silk suture. The needle was immediately removed after ligation, leaving the aortic constriction in place. The incision was closed and the animals were allowed to recover. Analgesia was provided before the mice awoke from anesthesia. Sham surgery utilized the same procedure but without aortic ligation. • Echocardiography.

TAC mice = assay: Transverse aortic constriction (TAC) in mice, Protocol 1: febuxostat for 8 days beginning ~60 min after TAC; assay type: in vivo
Text: as §1, §2

[3] = sham-operated mice, three-week treatment
[4] = 5 mg/kg/day oral gavage for 8 days from ~60 min after TAC
[5] = 8 days, versus TAC vehicle, listed as FBS
[6] = sham-operated mice, three-week treatment, versus vehicle

SMILES: Oc1ncnc2[nH]ncc12 [allopurinol]
- Cross-inhibition on other purine and pyrimidine metabolism enzymes such as purine nucleoside phosphorylase and orotidine-5′-monophosphate decarboxylase [1]: cross-inhibition
- Anterior wall thickness at end-diastole ([2]; TAC mice): 0.87 ± 0.02^a mm
- Anterior wall thickness at end-systole ([2]; TAC mice): 1.20 ± 0.03^a mm
- LV ejection fraction ([2]; TAC mice): 60.2 ± 2.2^a %
- LV end-diastolic diameter ([2]; TAC mice): 4.21 ± 0.08^a mm
- LV end-systolic diameter ([2]; TAC mice): 3.09 ± 0.10^a mm
- LV fractional shortening ([2]; TAC mice): 26.8 ± 1.4^a %
- Lung weight ([2]; TAC mice): 166 ± 16 mg
- Lung/body weight ([2]; TAC mice): 6.98 ± 0.94 mg/g
- Posterior wall thickness at end-diastole ([2]; TAC mice): 0.88 ± 0.02^a mm
- Posterior wall thickness at end-systole ([2]; TAC mice): 1.20 ± 0.03^a mm
- Ventricle weight ([2]; TAC mice): 153 ± 6^a mg
- Ventricle/body weight ([2]; TAC mice): 6.27 ± 0.36^a mg/g
- Lung/body weight ([2]; TAC mice, listed as AL): no significant effect
- Ventricle/body weight ([2]; TAC mice, listed as AL): no significant effect
- Survival rate ([2]; TAC mice): 76%
- Plasma uric acid ([2]; TAC mice, three-week treatment): decreased
- TAC-induced ventricular fibrosis ([2]; TAC mice, three-week treatment): not affected
- LV function and dimensions (echocardiography) ([2]; TAC mice, three-week treatment, versus vehicle-treated TAC mice): no effect
- Anterior wall thickness at end-diastole ([2]; sham mice): 0.74 ± 0.01 mm
- Anterior wall thickness at end-systole ([2]; sham mice): 1.11 ± 0.04 mm
- LV ejection fraction ([2]; sham mice): 77.7 ± 2.1%
- LV end-diastolic diameter ([2]; sham mice): 3.71 ± 0.06 mm
- LV end-systolic diameter ([2]; sham mice): 2.22 ± 0.07 mm
- LV fractional shortening ([2]; sham mice): 40.1 ± 2.0%
- Lung weight ([2]; sham mice): 131 ± 3 mg
- Lung/body weight ([2]; sham mice): 5.40 ± 0.14 mg/g
- Posterior wall thickness at end-diastole ([2]; sham mice): 0.74 ± 0.01 mm
- Posterior wall thickness at end-systole ([2]; sham mice): 1.11 ± 0.03 mm
- Ventricle weight ([2]; sham mice): 100 ± 3 mg
- Ventricle/body weight ([2]; sham mice): 4.13 ± 0.12 mg/g
- Lung weight ([2]; sham mice, listed as AL): no significant effects
- Lung/body weight ([2]; sham mice, listed as AL): no significant effects
- Ventricle weight ([2]; sham mice, listed as AL): no significant effects
- Ventricle/body weight ([2]; sham mice, listed as AL): no significant effects
- LV function and dimensions (any of the parameters evaluated by echocardiography) [2, 3]: no effect
- Plasma uric acid [2, 3]: significantly decreased

SMILES: Cc1nc(-c2ccc(OCC(C)C)c(C#N)c2)sc1C(=O)O [febuxostat, 2-[3-cyano-4-(2-methylpropoxy)phenyl]-4-methylthiazole-5-carboxylic acid]
- Cross-inhibition on other purine and pyrimidine metabolism enzymes such as purine nucleoside phosphorylase and orotidine-5′-monophosphate decarboxylase [1]: avoids the cross-inhibition
- Anterior wall thickness at end-diastole (TAC mice; [4]): 0.84 ± 0.02 mm
- Anterior wall thickness at end-systole (TAC mice; [4]): 1.10 ± 0.04 mm
- LV fractional shortening (TAC mice; [4]): 31.5 ± 2.2*^,# %
- Lung weight (TAC mice; [4]): 163 ± 16 mg
- Posterior wall thickness at end-diastole (TAC mice; [4]): 0.83 ± 0.02*^,# mm
- Posterior wall thickness at end-systole (TAC mice; [4]): 1.10 ± 0.03 mm
- Ventricle weight (TAC mice; [4]): 138 ± 7.0*^,# mg
- Cardiac myocyte diameter (TAC mice; 8 days): 16.3±0.3 μm
- Mortality (mice died) (TAC mice; 8 days): 14 out of 30
- Myocardial fibrosis (TAC mice; 8 days): 8.3±2. %
- TAC-induced left ventricular (LV) hypertrophy (TAC mice; 8 days, FIG. 1A): significantly attenuated
- TAC-induced pulmonary congestion (TAC mice; 8 days, FIG. 1B): tended to decrease
- TAC-induced cardiac sudden death / mortality (effect) (TAC mice; 8 days, FIG. 1C): not affected; also recorded: no effect
- TAC-induced increase of myocardial ANP (TAC mice; 8 days, Western blot of LV): significantly attenuated
- TAC-induced increase of myocardial collagen III (TAC mice; 8 days, Western blot of LV): significantly attenuated
- TAC-induced increase of myocardial nitrotyrosine (TAC mice; 8 days, Western blot of LV): significantly blunted
- TAC-induced increase of myocardial pre-collagen I (TAC mice; 8 days, Western blot of LV): significantly attenuated
- TAC-induced increase of p-Erk Thr202/204 (TAC mice; 8 days, Western blot of LV): significantly attenuated
- TAC-induced increase of p-mTOR Ser2488 (TAC mice; 8 days, Western blot of LV): significantly attenuated
- TAC-induced increase of t-Erk (TAC mice; 8 days, Western blot of LV): significantly attenuated
- TAC-induced increase of myocardial nitrotyrosine (TAC mice; 8 days, Western blot of LV, listed as FBS): significantly attenuated
- Decrease of pulmonary congestion (ratio of lung weight to body weight) (TAC mice; 8 days, versus TAC vehicle): about 18%
- LV diameter at end-diastole (TAC mice; 8 days, versus TAC vehicle): no significant effect
- Plasma uric acid (TAC mice; 8 days, versus TAC vehicle): significantly decreased
- Reduction of ventricular hypertrophy (ratio of ventricular mass to body weight) (TAC mice; 8 days, versus TAC vehicle): approximately 15%
- TAC-induced decrease of LV ejection fraction (TAC mice; 8 days, versus TAC vehicle): attenuated
- TAC-induced decrease of LV fractional shortening (TAC mice; 8 days, versus TAC vehicle): attenuated
- TAC-induced increase of LV diameter at end-systole (TAC mice; 8 days, versus TAC vehicle): trend toward attenuating
- TAC-induced increase of LV end-diastolic wall thickness (TAC mice; 8 days, versus TAC vehicle): significantly attenuated
- LV diameter at end-diastole (TAC mice; [5]): not changed
- TAC-induced decrease of LV ejection fraction (TAC mice; [5]): significantly attenuated
- TAC-induced increase of LV diameter at end-systole (TAC mice; [5]): trend toward attenuation
- Anterior wall thickness at end-diastole ([2]; TAC mice): 0.85 ± 0.02^a mm
- Anterior wall thickness at end-systole ([2]; TAC mice): 1.19 ± 0.02^a mm
- LV ejection fraction ([2]; TAC mice): 63.9 ± 1.9^a %
- Lung weight ([2]; TAC mice): 170 ± 17 mg
- Lung/body weight ([2]; TAC mice): 6.59 ± 0.64 mg/g
- Posterior wall thickness at end-diastole ([2]; TAC mice): 0.84 ± 0.02^a mm
- Posterior wall thickness at end-systole ([2]; TAC mice): 1.18 ± 0.02^a mm
- Ventricle weight ([2]; TAC mice): 158 ± 6^a mg
- Ventricle/body weight ([2]; TAC mice): 6.11 ± 0.21^a mg/g
- Survival rate ([2]; TAC mice): 96%
- LV end-diastolic wall thickness ([2]; TAC mice, three-week treatment): unchanged
- Plasma uric acid ([2]; TAC mice, three-week treatment): decreased
- TAC-induced cardiac myocyte hypertrophy ([2]; TAC mice, three-week treatment): no effect
- TAC-induced ventricular fibrosis ([2]; TAC mice, three-week treatment): not affected
- Improvement (increase) of LV ejection fraction ([2]; TAC mice, three-week treatment, versus vehicle): ~10%
- Anterior wall thickness at end-diastole ([2]; sham mice): 0.72 ± 0.02 mm
- Anterior wall thickness at end-systole ([2]; sham mice): 1.18 ± 0.04 mm
- LV ejection fraction ([2]; sham mice): 85.5 ± 1.6^a %
- LV fractional shortening ([2]; sham mice): 48.3 ± 2.2^a %
- Lung/body weight ([2]; sham mice): 5.42 ± 0.11 mg/g
- Posterior wall thickness at end-diastole ([2]; sham mice): 0.72 ± 0.02 mm
- Posterior wall thickness at end-systole ([2]; sham mice): 1.18 ± 0.04^a mm
- Ventricle/body weight ([2]; sham mice): 3.94 ± 0.07 mg/g
- End-diastolic wall thickness [2, 3]: did not change
- Plasma uric acid [2, 3]: significantly decreased
- Increase in LV ejection fraction [2, 6]: ~9%
- Increase in LV fractional shortening [2, 6]: ~15%
